Test results as given in the supplement of paper PMC10307832.

What was measured:
Experiment in all cases: relative viability (nuclei count vs DMSO), 5 days (fraction); higher = more cells survive
Tosedostat + OSI-027 = compound: CC(C)C[C@@H](C(=O)N[C@H](C(=O)OC1CCCC1)c1ccccc1)[C@H](O)C(=O)NO [Tosedostat] + COc1cccc2cc(-c3nc([C@H]4CC[C@H](C(=O)O)CC4)n4ncnc(N)c34)[nH]c12 [OSI-027] (partner 0.5 µM)
Method in brief: (§1)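 Lung cancer cell lines were pin-tool dosed in 1536-well plates on the day after seeding, with either a lone drug or a fixed anchor-drug dose plus five library-drug doses (not always all listed) in √10 steps. Nuclei were counted on 4× images after 5 days. Relative viability is the ratio of treated-well to vehicle-well nuclei counts, with each value a median of duplicate plates.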

[1] = compound: CC1=NN=C(O1)C2=NN=C(C=C2)N3CCC(CC3)OC4=C(C=CC(=C4)F)Cl + CS(=O)(=O)CCNCc1ccc(-c2ccc3ncnc(Nc4ccc(OCc5cccc(F)c5)c(Cl)c4)c3c2)o1 [Lapatinib] (partner 2 µM)
Method in brief: as §1

[2] = compound: CC1=NN=C(O1)C2=NN=C(C=C2)N3CCC(CC3)OC4=C(C=CC(=C4)F)Cl + Cc1nc(Nc2ncc(C(=O)Nc3c(C)cccc3Cl)s2)cc(N2CCN(CCO)CC2)n1 [Dasatinib] (partner 0.075 µM)
Method in brief: as §1

Tosedostat + Pictilisib = compound: CC(C)C[C@@H](C(=O)N[C@H](C(=O)OC1CCCC1)c1ccccc1)[C@H](O)C(=O)NO [Tosedostat] + CS(=O)(=O)N1CCN(Cc2cc3nc(-c4cccc5[nH]ncc45)nc(N4CCOCC4)c3s2)CC1 [Pictilisib] (partner 1 µM)
Method in brief: as §1

Cell Line	relative viability (Tosedostat + OSI-027; first compound 0.02 µM)	relative viability (Tosedostat + OSI-027; first compound 0.06325 µM)	relative viability (Tosedostat + OSI-027; first compound 0.2 µM)	relative viability (Tosedostat + OSI-027; first compound 0.6325 µM)	relative viability (Tosedostat + OSI-027; first compound 2 µM)	relative viability ([1]; first compound 0.253 µM)	relative viability ([1]; first compound 0.8 µM)	relative viability ([1]; first compound 2.53 µM)	relative viability ([1]; first compound 8 µM)	relative viability ([2]; first compound 0.253 µM)	relative viability ([2]; first compound 0.8 µM)	relative viability ([2]; first compound 2.53 µM)	relative viability ([2]; first compound 8 µM)	relative viability (Tosedostat + Pictilisib; first compound 0.02 µM)	relative viability (Tosedostat + Pictilisib; first compound 0.06325 µM)	relative viability (Tosedostat + Pictilisib; first compound 0.2 µM)	relative viability (Tosedostat + Pictilisib; first compound 0.6325 µM)	relative viability (Tosedostat + Pictilisib; first compound 2 µM)
NCI-H2087	0.664	0.497	0.487	0.543	0.559	0.618	0.56	0.554	0.51	0.597	0.458	0.581	0.515	1.09	0.791	0.946	0.529	0.684
NCI-H647	0.541	0.667	0.515	0.4	0.585	0.673	0.667	0.824	0.58	0.196	0.222	0.207	0.178	0.563	0.444	0.553	0.429	0.493
SW 1573	0.653	0.517	0.558	0.479	0.482	1.03	1.09	0.877	0.932	0.452	0.535	0.459	0.315	0.477	0.485	0.484	0.485	0.388
HARA	0.695	0.492	0.421	0.447	0.382	0.397	0.363	0.403	0.285	0.271	0.248	0.247	0.235	0.375	0.432	0.314	0.376	0.348
NCI-H2347	0.364	0.203	0.459	0.353	0.427	0.557	0.631	0.593	0.535	–	0.343	0.33	0.277	0.659	0.662	0.554	0.771	0.552
NCI-H1651	0.747	0.801	0.62	0.708	0.598	0.695	0.784	0.691	0.708	0.406	0.394	0.335	0.374	0.729	0.64	0.503	0.55	0.451
NCI-H2009	0.696	0.605	0.498	0.4	0.367	0.453	0.421	0.427	0.464	0.309	0.289	0.307	0.327	1.14	0.841	0.682	0.732	0.524
PC-3 [JPC-3]	0.693	0.828	0.73	0.614	0.609	0.404	0.453	0.445	0.432	0.944	0.813	0.877	0.852	0.756	0.771	0.602	0.576	0.501
COR-L23	0.965	0.746	0.69	0.65	0.64	0.811	0.761	0.756	0.602	0.438	0.375	0.39	0.343	0.955	0.784	0.666	0.649	0.745
COR-L 105	0.605	0.731	0.647	0.606	0.62	0.349	0.36	0.332	0.417	0.329	0.346	0.413	0.489	0.451	0.414	0.379	0.319	0.356
LK-2	0.174	0.214	0.239	0.219	0.199	0.982	0.945	0.947	0.818	0.393	0.458	0.504	0.428	0.613	0.583	0.576	0.606	0.812
201T	0.761	0.818	0.755	0.949	0.718	0.392	0.471	0.524	0.435	0.38	0.45	0.409	0.433	0.669	0.682	0.788	0.78	0.762
NCI-H838	0.383	0.413	0.445	0.503	0.404	0.86	0.645	0.842	0.78	0.299	0.32	0.301	0.331	0.522	0.5	0.456	0.652	0.638
H3255	0.67	0.522	0.603	0.513	0.509	0.24	0.193	0.266	0.269	0.316	0.434	0.404	0.338	0.659	0.45	0.409	0.42	0.533
PC-14	0.959	0.818	0.637	0.5	0.449	0.294	0.31	0.302	0.313	0.264	0.242	0.283	0.231	0.789	0.647	0.555	0.385	0.458
NCI-H2228	0.728	0.574	0.571	0.387	0.363	1.03	1.01	1.13	0.848	0.555	0.412	0.537	0.405	0.438	0.492	0.347	0.354	0.217
NCI-H322M	0.606	0.571	0.567	0.556	0.509	0.467	0.581	0.592	0.551	0.255	0.315	0.268	0.29	0.532	0.408	0.45	0.486	0.391
NCI-H1944	0.424	0.401	0.422	0.381	0.38	0.452	0.526	0.553	0.426	0.212	0.23	0.224	0.264	0.368	0.37	0.363	0.352	0.356
